The values below come from patent US20250270289A1, “SEQUENCE-DEFINED POLYMERS WITH ONE OR MORE AZIDES, METHODS OF MAKING, AND METHODS OF USE THEREOF” (Yale University, priority 2021, published 2025).

Like-named read-outs stand apart in the source and are kept apart here. Starred links: 1 amine or outer side, 2 acyl side, 3 side chain; linkers in the order of their positions; H or OH if unused. Non-standard residues stand in square brackets, D forms with d. Residues, ends and D or L forms follow the SMILES beside them. X1 = O=C([C@H](Cc1ccc(NP(=O)(O)O)cc1)N[*:1])[*:2] Where only a bound is given, the exact number is not on record here.

One data set concerns the target T1, pAcFRS.1.t1 synthetase (Methanocaldococcus jannaschii, UniProt Q57834, A167D/D158G/D286R/I159C/L162R/R257G/Y32L).
T1 construct: His; made in house
The data set can be described thus: In vitro tRNA charging assay. It counts as biochemical. Particulars: purified pAcFRS.1.t1, 1 mM amino acid. How it is done:
The pAcFRS.1.t1 synthetase was His-purified, and stored in 50 mM KCl, 50 mM HEPES-KOH at pH 7.5, 10% glycerol. The cognate tRNA was in vitro transcribed (IVT) from dsDNA template containing a T7 promoter, hammerhead ribozyme and tRNA, as described previously(Fechter et al., 1998). The IVT buffer consists of 40 mM Tris-HCl at pH8.0, 0.01% Triton X, 30 mM MgCl2, 2 mM Spermidine, 1 mM DTT. For a 100 μL reaction, 4 mM riboNTPs (N0466S, NEB), 100U T7 (M0251S, NEB) and 1-2 μM dsDNA template were added. The reaction was incubated at 37° C. for 3 h. Afterwards, the sample was diluted 5× with reaction buffer, and heated to 65C for 1 h to promote hammerhead cleavage. After a phenol:chloroform extraction, the cleaved tRNA was separated from other fragments using a TBE-Urea gel. Finally, the tRNA was refolded by slowly cooling the sample from 95° C. to r.t. At 65° C., MgCl2 was added to a final concentration of 10 mM.
aaRS specificity was measured using in vitro charging. The reaction composition was 150 mM HEPES-KOH at pH 7.5, 10 mM MgCl2, 2.5 mM DTT, 0.2 mg/mL BSA, 2 mM ATP, 1 mM amino acid, 500 nM aaRS and 750 nM tRNA. The reactions were incubated at 37° C. for 30 min. Afterwards, they were quenched using loading buffer (0.1 M sodium acetate pH 5.0, 8 M urea, 0.05% bromophenol blue, 0.05% xylene cyanol FF). The samples were then analyzed on an acid-urea PAGE gel (8 M urea, 0.1 M sodium acetate at pH 5.2) (Varshney et al., 1991), that was prerun in running buffer (0.1 M NaOAc at pH 5.2) for 20 min at 13 W. After sample loading, the gel was run at a constant 13 W for 20 h. The tRNA was visualized with ethidium bromide staining.

Data set [1] can be described thus: Reduction of pAzF to pAF under purification pH and temperatures (HRMS). It counts as physicochemical. Particulars: pH 6.6, 7.2, 7.9; 4, 20, 34 or 80° C. The text has this:
High-resolution mass spectrometry (HRMS) data was collected using an Agilent iFunnel 6550 Quadrupole Time-Of-Flight (QTOF) MS with an electrospray ionization (ESI) source, coupled to an Agilent Infinity 1290 ultra-high-performance liquid chromatography (UHPLC) system with an Agilent Eclipse Plus C18 1.8 μm, 4.6×50 mm column. Solvents used were (solvent A) water 0.1% formic acid and (solvent B) CH3CN 0.1% formic acid. Mass spectra were gathered using Dual Agilent Jet Stream (AJS) ESI in positive mode. The mass range was set from 110 to 1700 m/z with a scan speed of 3 scan/second. The capillary and nozzle voltages were set to 5500 and 2000 V, respectively. […] MS data were acquired with MassHunter Workstation Data Acquistion (Version B.06.01, Agilent Technologies) and analyzed using MassHunter Qualitative Analysis (Version B.07.00, Agilent Technologies). Protein quantification was performed using peptide standards with the same sequence as the digested peptides, or based on calibration curves produced using dilutions series of peptide(1TAG)-GFP.
Experiments were designed to assess if reduction of pAzF residues occurs during protein purification or MS analysis. Experiments evaluated if pAzF is reduced over a range of pH (6.6, 7.2, 7.9) and temperatures (4, 20, 34, or 80° C.) used during sample purification, and found minimal (<1%) reduction to pAF under all conditions. […]

The next data set concerns the target Src SH2 domain (Homo sapiens, UniProt P12931). In words: Fluorescence polarization assay, direct binding and competition with FITC-pTyrEEI.

T1 sequence (Q57834 whole entry Y32L/D158G/I159C/L162R/A167D/R257G/D286R): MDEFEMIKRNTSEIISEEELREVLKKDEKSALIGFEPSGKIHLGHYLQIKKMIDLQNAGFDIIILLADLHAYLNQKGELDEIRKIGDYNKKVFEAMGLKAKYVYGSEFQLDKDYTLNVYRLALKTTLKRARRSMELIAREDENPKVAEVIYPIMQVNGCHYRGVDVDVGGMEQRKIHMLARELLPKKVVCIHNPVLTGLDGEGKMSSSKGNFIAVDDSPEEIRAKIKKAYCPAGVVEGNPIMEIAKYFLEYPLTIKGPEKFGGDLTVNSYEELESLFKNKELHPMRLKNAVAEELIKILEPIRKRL
Method for Src SH2 domain: They were then induced with 1 mM IPTG and grown overnight. Cells were pelleted prior to freezing at −80° C. Pellets were resuspended in lysis buffer (50 mM Tris, pH 8.0, 500 mM NaCl, 0.5 mM EDTA, 0.5 mM EGTA, 10% glycerol) and then sonicated. Clarified lysate was incubated with Glutathione Sepharose 4B resin, washed (50 mM Tris, pH 8.0, 50 mM NaCl, 10% glycerol) and eluted from resin in elution buffer (20 mM reduced glutathione, 50 mM Tris, pH 8.0, 50 mM NaCl, 10% glycerol, pH 8.0). […] Protein was stored at −80° C. […] Kd was established using one-site binding model in GraphPad Prism version 7 for Mac (GraphPad Software, La Jolla, CA, USA). Unlabeled peptides were diluted to 100 μM in assay buffer. […] A full-dissociation control was established with 10 nM peptide in assay buffer. […] EC50 for percent inhibition was estimated by plotting log10[agonist] vs. response and fitting a four-parameter variable slope fit in GraphPad Prism.

In the case of `Nc1ccc(C[C@H](N)C(=O)O)cc1` [pAF, para-amino-phenylalanine], the “charging onto the cognate tRNA” value at pAcFRS.1.t1 synthetase is given as “no charging”.

For `[N-]=[N+]=Nc1ccc(C[C@H](N)C(=O)O)cc1` [pAzF, para-azido-phenylalanine], the “charging onto the cognate tRNA” value on pAcFRS.1.t1 synthetase is listed as “charged”. Besides, in data set [1], the “reduction to pAF” value was below 1%.

At Src SH2 domain, `CC[C@H](C)[C@H](NC(=O)[C@@H]1CCCN1C(=O)[C@@H](NC(=O)[C@H](CCC(=O)O)NC(=O)[C@H](CCC(=O)O)NC(=O)[C@H](Cc1ccc(NP(=O)(O)O)cc1)NC(=O)[C@H](CCC(N)=O)NC(=O)[C@@H]1CCCN1C(=O)[C@@H](N)CCC(=O)O)[C@@H](C)CC)C(=O)N[C@@H](Cc1ccc(O)cc1)C(=O)N[C@@H](CC(C)C)C(=O)O` [pnY peptide] (H-EPQ[X1]EEIPIYL-OH; N-terminus and C-terminus assumed) showed an EC50 of 12.8 µM. The “Decrease in binding affinity with SH2” value at Src SH2 domain (pnY peptide EC50 compared with […], Src SH2) is 17 fold.

Take `N[C@@H](Cc1ccc(O)cc1)C(=O)O` [tyrosine]: the “charging onto the cognate tRNA” value on pAcFRS.1.t1 synthetase is given as “no charging”.

In the case of “EPQYEEIPIYL [Tyr peptide, reference compound]”, the EC50 entry at Src SH2 domain (competition with FITC-labeled pTyr peptide) is given as “No increase in unbound FITC-pTyr peptide”.
